pIC50: −log10 of the molar value.
What was measured:
[1] = test system: P. falciparum NF54 asexual parasites; assay: asexual parasite growth inhibition assay (SYBR Green); type: cell-based, Plasmodium falciparum; conditions: 72 h, mean ± SD, n = 3
Protocol: Asexual parasites of P. falciparum strain NF54 were cultured as described previously. Briefly, parasites were maintained in RPMI 1640 medium containing 10% positive human serum + erythrocytes (5% haematocrit), 2.5% sodium bicarbonate and 11 µg/mL gentamicin at 37 °C with 5% CO2, 5% O2 and 90% N2. Gametocyte cultures were set up at 0.1% parasitaemia and on days 9–10 treated with 50 mM N-acetylglucosamine (NAG) to block further asexual growth. Stage III–V gametocytes were isolated by Percoll density gradient centrifugation on day 12 and returned to culture for 24 h before being used in the assay. At the time of the assay over 73% of the gametocytes were stage IV or V (Additional file 1). HepG2 cells (ATCC, cat. no. 77400) were cultured in 175-cm^2 tissue culture flasks with 30 ml growth medium at 37 °C in a 5% CO2 and 5% O2 humidified atmosphere. Growth medium was made with Dulbecco’s Modified Eagle Medium with 10% fetal bovine serum (FBS). Growth medium was replaced every other day and cells were passaged at 75% confluence.
Drug activity on asexual stage parasites was tested using a SYBR Green assay as described previously. Briefly, 2.5 μL/well complete culture medium was dispensed into each well of 1536-well plates using the Multidrop Combi followed by 23 nL compound transferring using the NX-TR Pintool. Parasites were diluted to 0.5% parasitaemia in complete culture medium with 2% haematocrit and drugs diluted in DMSO (≤0.5%). The pre-diluted parasites were dispensed into a 1536-well plate (2.5 μL/well). After 72 h incubation under the standard culture conditions, 5 μL/well of lysis buffer containing SYBR Green I was added to the parasite culture and incubated for 30 min at room temperature. The fluorescence of each well was measured in a fluorescence detection mode (Ex = 490 nm, Em = 520 nm) using a ViewLux plate reader (PerkinElmer).

[2] = molecular target: T1, RSK2(Kin.Dom.2-C-terminal) (Homo sapiens, UniProt P51812); assay: Kinome scan profile; type: binding; conditions: 10 μM
T1 construct: RSK2(Kin.Dom.2-C-terminal); purchased DiscoverX (KINOMEscan)

[3] = molecular target: T2, ERBB3 (Homo sapiens, UniProt P21860); assay: Kinome scan profile; type: binding; conditions: 10 μM
T2 construct: purchased DiscoverX (KINOMEscan)

[4] = molecular target: T3, ABL1(Q252H)-phosphorylated (Homo sapiens, UniProt P00519, Q252H); assay: Kinome scan profile; type: binding; conditions: 10 μM
T3 construct: purchased DiscoverX (KINOMEscan)

[5] = molecular target: T4, MST4 (Homo sapiens, UniProt Q9P289); assay: Kinome scan profile; type: binding; conditions: 10 μM
T4 construct: purchased DiscoverX (KINOMEscan)

[6] = molecular target: T5, MAP3K3 (Homo sapiens, UniProt Q99759); assay: Kinome scan profile; type: binding; conditions: 10 μM
T5 construct: purchased DiscoverX (KINOMEscan)
T5 sequence (Q99759 1-626): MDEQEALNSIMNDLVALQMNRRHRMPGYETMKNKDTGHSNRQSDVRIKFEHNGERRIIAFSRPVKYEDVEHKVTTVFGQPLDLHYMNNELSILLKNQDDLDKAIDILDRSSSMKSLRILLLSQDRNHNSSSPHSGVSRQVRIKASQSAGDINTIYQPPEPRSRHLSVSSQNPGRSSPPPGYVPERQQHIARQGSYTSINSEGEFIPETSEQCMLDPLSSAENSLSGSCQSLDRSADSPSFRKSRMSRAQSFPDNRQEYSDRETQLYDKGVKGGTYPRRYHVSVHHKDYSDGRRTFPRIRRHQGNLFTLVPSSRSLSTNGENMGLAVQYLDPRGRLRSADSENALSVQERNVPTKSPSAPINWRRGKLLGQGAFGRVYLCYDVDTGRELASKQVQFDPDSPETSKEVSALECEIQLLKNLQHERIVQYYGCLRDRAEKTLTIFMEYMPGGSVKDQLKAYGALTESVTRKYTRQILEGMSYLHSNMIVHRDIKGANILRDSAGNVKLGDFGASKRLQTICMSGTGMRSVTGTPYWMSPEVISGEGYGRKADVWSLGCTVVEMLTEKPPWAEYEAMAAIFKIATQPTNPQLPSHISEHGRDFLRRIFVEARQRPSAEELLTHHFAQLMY

[7] = test system: 468 human kinases; assay: human kinase profiling (Kinome scan, DiscoverX), whole panel; type: binding

T4 sequence (Q9P289 whole entry): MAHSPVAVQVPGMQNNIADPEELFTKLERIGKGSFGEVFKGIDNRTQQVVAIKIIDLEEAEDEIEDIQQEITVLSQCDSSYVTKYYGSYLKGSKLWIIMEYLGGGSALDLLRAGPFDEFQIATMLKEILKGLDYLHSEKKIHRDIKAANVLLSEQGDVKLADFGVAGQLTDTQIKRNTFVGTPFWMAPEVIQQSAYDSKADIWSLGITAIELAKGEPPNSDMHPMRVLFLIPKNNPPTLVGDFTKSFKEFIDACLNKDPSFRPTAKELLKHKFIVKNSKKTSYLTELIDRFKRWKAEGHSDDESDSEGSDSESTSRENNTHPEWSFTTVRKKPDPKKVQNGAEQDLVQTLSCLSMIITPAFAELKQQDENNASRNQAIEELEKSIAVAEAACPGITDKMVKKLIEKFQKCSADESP
T1 sequence (P51812 422-679 limits assumed): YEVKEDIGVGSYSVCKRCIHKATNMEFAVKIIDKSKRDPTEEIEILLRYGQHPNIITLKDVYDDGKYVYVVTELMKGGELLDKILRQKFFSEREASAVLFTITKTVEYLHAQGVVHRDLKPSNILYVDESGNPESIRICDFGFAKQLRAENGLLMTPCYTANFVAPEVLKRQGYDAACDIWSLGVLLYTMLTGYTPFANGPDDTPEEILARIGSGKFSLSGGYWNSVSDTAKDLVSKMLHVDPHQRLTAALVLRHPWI
T2 sequence (P21860 20-1342): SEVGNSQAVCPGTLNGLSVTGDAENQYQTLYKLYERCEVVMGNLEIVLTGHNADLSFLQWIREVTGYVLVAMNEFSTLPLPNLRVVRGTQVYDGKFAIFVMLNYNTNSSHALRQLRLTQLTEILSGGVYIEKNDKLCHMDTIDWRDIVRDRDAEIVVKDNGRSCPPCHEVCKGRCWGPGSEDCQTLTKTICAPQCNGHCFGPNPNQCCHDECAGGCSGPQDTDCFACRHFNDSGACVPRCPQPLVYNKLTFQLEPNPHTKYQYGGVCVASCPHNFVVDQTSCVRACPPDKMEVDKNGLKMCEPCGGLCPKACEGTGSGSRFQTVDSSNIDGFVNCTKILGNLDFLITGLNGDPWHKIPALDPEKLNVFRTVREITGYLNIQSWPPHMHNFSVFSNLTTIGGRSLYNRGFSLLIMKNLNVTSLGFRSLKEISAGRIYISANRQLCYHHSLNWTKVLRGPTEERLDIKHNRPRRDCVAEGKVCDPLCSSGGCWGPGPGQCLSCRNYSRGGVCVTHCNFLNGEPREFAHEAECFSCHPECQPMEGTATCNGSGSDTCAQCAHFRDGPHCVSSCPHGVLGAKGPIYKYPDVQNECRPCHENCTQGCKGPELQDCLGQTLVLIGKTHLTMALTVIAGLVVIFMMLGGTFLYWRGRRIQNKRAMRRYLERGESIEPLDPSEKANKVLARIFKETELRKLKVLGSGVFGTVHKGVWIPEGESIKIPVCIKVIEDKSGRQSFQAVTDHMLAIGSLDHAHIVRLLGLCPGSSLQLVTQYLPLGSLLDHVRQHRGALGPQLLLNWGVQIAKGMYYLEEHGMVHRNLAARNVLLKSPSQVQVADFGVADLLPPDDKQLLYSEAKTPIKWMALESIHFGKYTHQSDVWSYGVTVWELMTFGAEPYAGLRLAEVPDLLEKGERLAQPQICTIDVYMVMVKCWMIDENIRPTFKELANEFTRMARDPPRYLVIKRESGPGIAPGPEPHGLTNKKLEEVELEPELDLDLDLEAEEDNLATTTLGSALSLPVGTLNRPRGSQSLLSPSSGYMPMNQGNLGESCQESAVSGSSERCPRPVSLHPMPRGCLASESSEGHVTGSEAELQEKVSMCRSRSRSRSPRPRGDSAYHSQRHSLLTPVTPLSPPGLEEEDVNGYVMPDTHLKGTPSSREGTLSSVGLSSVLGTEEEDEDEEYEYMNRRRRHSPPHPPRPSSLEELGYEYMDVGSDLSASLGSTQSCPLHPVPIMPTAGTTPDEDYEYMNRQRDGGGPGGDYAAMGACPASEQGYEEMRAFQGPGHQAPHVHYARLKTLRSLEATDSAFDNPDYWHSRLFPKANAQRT

## CCN1CCN(Cc2c(O)ccc3c(=O)c(Oc4ccccc4C(C)C)c(C(F)(F)F)oc23)CC1 [NCGC00100599]
[1]
  pIC50: 6.47
[2]
  % Control, RSK2(Kin.Dom.2-C-terminal): 29 % Control
[3]
  % Control, ERBB3: 17 % Control
[4]
  % Control, ABL1(Q252H)-phosphorylated: 9.9 % Control
[5]
  % Control, MST4: 34 % Control
[6]
  % Control, MAP3K3: 34 % Control
[7]; 10 μM
  number of human kinases interacting (Interactions Mapped, 468 Assays Tested): 16
[7]; 10 µM, 468 assays
  S-Score(35): 0.03
